Source: patent US20110183978A1, “Phenylpyri(mi)dinylazoles” (Bayer CropScience AG, priority 2009, published 2011)

assay: physchem; settings: LogPA

Row | chromatographic logP | Compound
1 | 4.74 | CC(C)Cn1cc(-c2ccnc(N(C(=O)C(C)C)C(=O)C(C)C)n2)c(-c2ccc(F)cc2)n1 [Compound 188]
2 | 3.96 | CC(C)S(=O)(=O)Nc1cc(-c2cn(CC(F)F)nc2-c2ccc(F)cc2)ccn1 [Compound 234]
3 | 2.38 | COCC(=O)Nc1cc(-c2c(-c3ccc(F)cc3O)nn(C)c2OC(F)F)ccn1 [Compound 201]
4 | 2.37 | COCC(=O)Nc1nccc(-c2cn(C(C)C)nc2-c2ccc(F)cc2)n1 [Compound 354]
5 | 3.65 | CC(C)C(=O)Nc1cc(-c2cn(OC3CCCC3)nc2-c2ccc(F)cc2)ccn1 [Compound 270]
6 | 2.59 | COCC(=O)Nc1cc(-c2c(-c3cc(F)c(C#N)cc3F)nn(C)c2OC(F)F)ccn1 [Compound 199]
7 | 4.25 | CC(C)Cn1cc(-c2ccnc(N(C(=O)C(C)C)C(C)C)n2)c(-c2ccc(F)cc2)n1 [Compound 185]
8 | 2.44 | CC(=O)Nc1nccc(-c2cn(CC(C)C)nc2-c2ccc(F)cc2)n1 [Compound 357]
9 | 3.15 | CC(C)Cn1cc(-c2ccnc(NCc3ccccc3)n2)c(-c2ccc(F)cc2)n1 [Compound 182]
10 | 2.49 | CC(C)n1cc(-c2ccnc(NC(=O)C3CC3)n2)c(-c2ccc(F)cc2)n1 [Compound 356]
11 | 3.45 | COCC(=O)Nc1cc(-c2c(-c3ccc(Cl)cc3F)nn(C)c2C(F)(F)F)ccn1 [Compound 202]
12 | 2.9 | CC(C)Cn1cc(-c2ccnc(S(C)(=O)=O)n2)c(-c2ccc(F)cc2)n1 [Compound 287]
13 | 3.27 | CCn1cc(-c2ccnc(NC(=O)c3ccsc3C(F)F)c2)c(-c2ccc(F)cc2)n1 [Compound 334]

same assay, conditions: LogPA (logP of the stated pure compound or, in a mixture, of the main isomer, 1-substituted 3-aryl-1H-pyrazole)

Row | Compound | chromatographic logP
14 | Fc1ccc(-c2nn(Cc3ccc(-c4ccccc4)cc3)cc2-c2ccncc2)cc1 [Compound 131] | 2.39
15 | Fc1ccc(-c2nn(Cc3ccc(OC(F)F)cc3)cc2-c2ccncc2)cc1 [Compound 109] | 1.88
16 | Fc1ccc(Cn2cc(-c3ccncc3)c(-c3ccc(F)cc3)n2)cc1 [Compound 130] | 1.69
17 | Fc1ccc(-c2nn(Cc3cccc(-c4ccccc4)c3)cc2-c2ccncc2)cc1 [Compound 125] | 2.38
18 | Cc1cc(-c2c(-c3ccncc3)cnn2C2CCCCO2)ccc1F (stereo not drawn) [Compound 55] | 1.47

The remaining lines, values ahead:

Row | chromatographic logP | Compound
19 | 2.02 | CC(C)(C)c1ccc(-c2c(-c3ccncc3)cnn2C2CCCCO2)cc1 (stereo not drawn) [Compound 57, 4-[5-(4-tert-butylphenyl)-1-(tetrahydro-2H-pyran-2-yl)-1H-pyrazol-4-yl]pyridine]
20 | 0.78 | Fc1ccc(-c2nn(Cc3cccnc3)cc2-c2ccncc2)cc1 [Compound 100]
21 | 2.73 | Fc1ccc(-c2nn(-c3cc(C(F)(F)F)ncn3)cc2-c2ccncc2)cc1 [Compound 112]
22 | 1.49 | Fc1ccc(-c2nn(C3CCCCO3)cc2-c2cc(N3CCOCC3)ncn2)cc1 (stereo not drawn) [Compound 52]
23 | 4.1 | CC(C)(C)C(=O)Nc1cc(-c2cn(C3CCCCO3)nc2-c2cccc(C(F)(F)F)c2)ccn1 (stereo not drawn) [Compound 48]
24 | 1.87 | COc1ccc(-c2nn(C3CCCCO3)cc2-c2ccnc3[nH]ccc23)cc1 (stereo not drawn) [Compound 80]
25 | 2.64 | Fc1ccc(-c2nn(-c3ccc(C(F)(F)F)cn3)cc2-c2ccncc2)cc1 [Compound 79]
26 | 3.84 | CC(C)(C)C(=O)Nc1cc(-c2cnn(C3CCCCO3)c2-c2cccc(C(F)(F)F)c2)ccn1 (stereo not drawn) [Compound 82]
27 | 1.69 | COc1ccc(-c2c(-c3ccncc3)cnn2C2CCCCO2)c2ccccc12 (stereo not drawn) [Compound 45]
28 | 1.84 | FC(F)(F)c1cccc(-c2nn(C3CCCCO3)cc2-c2ccncc2)c1 (stereo not drawn) [Compound 42]
29 | 0.96 | CS(=O)(=O)c1ccc(-c2c(-c3ccncc3)cnn2C2CCCCO2)cc1 (stereo not drawn) [Compound 68, 4-{5-[4-(methylsulphonyl)phenyl]-1-(tetrahydro-2H-pyran-2-yl)-1H-pyrazol-4-yl}pyridine]
30 | 1.57 | Fc1ccc(-c2c(-c3ccncc3)cnn2C2CCCCO2)cc1Cl (stereo not drawn) [Compound 51, 4-[5-(3-chloro-4-fluorophenyl)-1-(tetrahydro-2H-pyran-2-yl)-1H-pyrazol-4-yl]pyridine]
31 | 1.25 | CC(C)n1ncc(-c2ccnc(N)c2)c1-c1ccc(F)cc1 [Compound 97]
32 | 1.88 | c1ccc(Oc2cccc(-c3c(-c4ccncc4)cnn3C3CCCCO3)c2)cc1 (stereo not drawn) [Compound 67, 4-[5-(3-phenoxyphenyl)-1-(tetrahydro-2H-pyran-2-yl)-1H-pyrazol-4-yl]pyridine]

same assay, conditions: pH 2.3, LogP (pH 2.3)

Row | Compound | chromatographic logP
33 | COC(=O)C(C(C)C)n1cc(Br)c(-c2ccc(F)cc2)n1 (stereo not drawn) [[VI-16], Methyl 2-[4-bromo-3-(4-fluorophenyl)-1H-pyrazol-1-yl]-3-methylbutanoate] | 4.27
34 | CC(C)Cn1cc(B2OC(C)(C)C(C)(C)O2)c(-c2ccc(F)cc2)n1 [[V-3], 3-(4-Fluorophenyl)-1-isobutyl-4-(4,4,5,5-tetramethyl-1,3,2-dioxaborolan-2-yl)-1H-pyrazole] | 4.89
35 | CC1(C)OB(c2cn(CC(F)F)nc2-c2ccc(F)cc2)OC1(C)C [[V-4], 1-(2,2-difluoroethyl)-3-(4-fluorophenyl)-4-(4,4,5,5-tetramethyl-1,3,2-dioxaborolan-2-yl)-1H-pyrazole] | 3.84
36 | CC(C)Cn1cc(Br)c(-c2ccc(F)cc2)n1 [[VI-4], 4-Bromo-3-(4-fluorophenyl)-1-isobutyl-1H-pyrazole] | 4.34
37 | Fc1ccc(-c2nn(CC3CC3)cc2Br)cc1 [[VI-18], 4-Bromo-1-(cyclopropylmethyl)-3-(4-fluorophenyl)-1H-pyrazole] | 3.9
38 | CSCCn1cc(Br)c(-c2ccc(F)cc2)n1 [[VI-15], 4-Bromo-3-(4-fluorophenyl)-1-[2-(methylsulphanyl)ethyl]-1H-pyrazole] | 3.63
39 | CC(C)n1nc(-c2ccc(F)cc2)c(Br)c1C(F)(F)F [[VI-24], 4-Bromo-3-(4-fluorophenyl)-1-isopropyl-5-(trifluoromethyl)-1H-pyrazole] | 5.51
40 | CC1(C)OB(c2cn(OC3CCCC3)nc2-c2ccc(F)cc2)OC1(C)C [[V-6], 1-(Cyclopentyloxy)-3-(4-fluorophenyl)-4-(4,4,5,5-tetramethyl-1,3,2-dioxaborolan-2-yl)-1H-pyrazole] | 5.51
41 | CC(C)Cn1nc(-c2ccc(F)cc2)c(Br)c1OC(F)F [[VI-b-3], 4-Bromo-5-(difluoromethoxy)-3-(4-fluorophenyl)-1-isobutyl-1H-pyrazole] | 4.91

Now from value to compound:

Row | chromatographic logP | Compound
42 | 1.35 | Fc1ccc(-c2c(-c3ccncc3)cnn2C2CCCCO2)c(F)c1 (stereo not drawn) [[X-8], 4-[5-(2,4-difluorophenyl)-1-(tetrahydro-2H-pyran-2-yl)-1H-pyrazol-4-yl]pyridine]
43 | 1.45 | N#Cc1cc(-c2c(-c3ccncc3)cnn2C2CCCCO2)ccc1F (stereo not drawn) [[X-12], 2-fluoro-5-[4-(pyridin-4-yl)-1-(tetrahydro-2H-pyran-2-yl)-1H-pyrazol-5-yl]benzonitrile]
44 | 0.92 | NS(=O)(=O)c1ccc(-c2c(-c3ccncc3)cnn2C2CCCCO2)cc1 (stereo not drawn) [[X-23], 4-[4-(pyridin-4-yl)-1-(tetrahydro-2H-pyran-2-yl)-1H-pyrazol-5-yl]benzenesulphonamide]
45 | 1.57 | Fc1ccc(-c2c(-c3ccncc3)cnn2C2CCCCO2)cc1Cl (stereo not drawn) [[X-6], 4-[5-(3-chloro-4-fluorophenyl)-1-(tetrahydro-2H-pyran-2-yl)-1H-pyrazol-4-yl]pyridine]
46 | 1.88 | c1ccc(Oc2cccc(-c3c(-c4ccncc4)cnn3C3CCCCO3)c2)cc1 (stereo not drawn) [[X-16], 4-[5-(3-phenoxyphenyl)-1-(tetrahydro-2H-pyran-2-yl)-1H-pyrazol-4-yl]pyridine]

same assay, conditions: pH 2.7, logP (pH 2.7)

Row | Compound | chromatographic logP
47 | COC(=O)C(C(C)C)n1cc(Br)c(-c2ccc(F)cc2)n1 (stereo not drawn) [[VI-16], Methyl 2-[4-bromo-3-(4-fluorophenyl)-1H-pyrazol-1-yl]-3-methylbutanoate] | 4.27
48 | Fc1ccc(-c2n[nH]cc2Br)cc1 [[VII-I], 4-Bromo-3-(4-fluorophenyl)-1H-pyrazole] | 2.29
49 | CC(C)Nc1nccc(-c2c[nH]nc2-c2ccc(F)cc2)n1 [[XLVI-1], 4-[3-(4-fluorophenyl)-1H-pyrazol-4-yl]-N-isopropylpyrimidin-2-amine] | 1.37
50 | CC(C)Cn1cc(B2OC(C)(C)C(C)(C)O2)c(-c2ccc(F)cc2)n1 [[V-3], 3-(4-Fluorophenyl)-1-isobutyl-4-(4,4,5,5-tetramethyl-1,3,2-dioxaborolan-2-yl)-1H-pyrazole] | 4.76
51 | CSc1nccc(-c2cn(C(C)C)nc2-c2ccc(F)cc2)n1 [[XL-1], 4-[3-(4-Fluorophenyl)-1-isopropyl-1H-pyrazol-4-yl]-2-(methylsulphanyl)pyrimidine] | 3.62
52 | CC1(C)OB(c2cn(CC(F)F)nc2-c2ccc(F)cc2)OC1(C)C [[V-4], 1-(2,2-difluoroethyl)-3-(4-fluorophenyl)-4-(4,4,5,5-tetramethyl-1,3,2-dioxaborolan-2-yl)-1H-pyrazole] | 3.84
53 | CCC(=O)Nc1cc(-c2cn(CCOC)nc2-c2ccc(F)cc2)ccn1 [[I-2], N-{4-[3-(4-Fluorophenyl)-1-(2-methoxyethyl)-1H-pyrazol-4-yl]pyridin-2-yl}propanamide] | 1.61
54 | CC(C)Cn1cc(Br)c(-c2ccc(F)cc2)n1 [[VI-4], 4-Bromo-3-(4-fluorophenyl)-1-isobutyl-1H-pyrazole] | 4.34
55 | Fc1ccc(-c2nn(CC3CC3)cc2Br)cc1 [[VI-18], 4-Bromo-1-(cyclopropylmethyl)-3-(4-fluorophenyl)-1H-pyrazole] | 3.9
56 | CC(C)Cn1ncc(Br)c1-c1ccc(F)cc1 [[VI-5], 4-Bromo-5-(4-fluorophenyl)-1-isobutyl-1H-pyrazole] | 4.04
57 | CCn1ncc(Br)c1-c1ccc(F)cc1 [[VI-3], 4-Bromo-1-ethyl-5-(4-fluorophenyl)-1H-pyrazole] | 3.15
58 | CSCCn1cc(Br)c(-c2ccc(F)cc2)n1 [[VI-15], 4-Bromo-3-(4-fluorophenyl)-1-[2-(methylsulphanyl)ethyl]-1H-pyrazole] | 3.63
59 | COc1cc(F)ccc1-c1nn(C)c(OC(F)F)c1Br [[VI-b-4], 4-Bromo-5-(difluoromethoxy)-3-(4-fluoro-2-methoxyphenyl)-1-methyl-1H-pyrazole] | 3.15
60 | CC(C)n1nc(-c2ccc(F)cc2)c(Br)c1C(F)(F)F [[VI-24], 4-Bromo-3-(4-fluorophenyl)-1-isopropyl-5-(trifluoromethyl)-1H-pyrazole] | 5.51
61 | CC1(C)OB(c2cn(OC3CCCC3)nc2-c2ccc(F)cc2)OC1(C)C [[V-6], 1-(Cyclopentyloxy)-3-(4-fluorophenyl)-4-(4,4,5,5-tetramethyl-1,3,2-dioxaborolan-2-yl)-1H-pyrazole] | 5.51
62 | COCCn1ncc(Br)c1-c1ccc(F)cc1 [[VI-7], 4-Bromo-5-(4-fluorophenyl)-1-(2-methoxyethyl)-1H-pyrazole] | 2.9
63 | CC(C)Cn1nc(-c2ccc(F)cc2)c(Br)c1OC(F)F [[VI-b-3], 4-Bromo-5-(difluoromethoxy)-3-(4-fluorophenyl)-1-isobutyl-1H-pyrazole] | 4.91

The remaining lines, values ahead:

Row | chromatographic logP | Compound
64 | 0.92 | Fc1ccc(-c2n[nH]c(Br)c2-c2ccncc2)cc1 [[XXVIII-1], 4-[5-Bromo-3-(4-fluorophenyl)-1H-pyrazol-4-yl]pyridine]
65 | 1.51 | N#Cc1cccc(Cn2cc(-c3ccncc3)c(-c3ccc(F)cc3)n2)c1 [[I-3], 3-{[3-(4-Fluorophenyl)-4-(pyridin-4-yl)-1H-pyrazol-1-yl]methyl}benzonitrile]
66 | 0.6 | Cc1[nH]nc(-c2ccc(F)cc2)c1-c1ccncc1 [[IX-b-1], 4-[3-(4-Fluorophenyl)-5-methyl-1H-pyrazol-4-yl]pyridine]
